Results from patent publication US8975417B2, “Pyrazolopyrrolidine derivatives and their use in the treatment of disease” (Novartis AG, priority 2013, dated 2015).

Columns and labels:
His-Brd2(60-472) = His-Brd2(60-472) (Homo sapiens (Human), UniProt P25440); assay: TR-FRET in-vitro binding assay for BRD2; settings: biochemical
In short: (§1)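 Bromodomain protein (45 nM in its addition solution) and tetra-acetylated histone H4 peptide (AcK5/8/12/16; 60 nM in its addition solution) were incubated with compounds for 35 min at 30 °C in 50 mM HEPES pH 7.5, 50 mM NaCl, 0.005% Tween20, 0.1% BSA. Eu-anti-His6 plus streptavidin-allophycocyanin detection followed, with TR-FRET read-out.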

K-562 cells = assay: Cell growth inhibition assay (CellTiter-Glo), K-562; assay type: cell-based, human; settings: Homo sapiens, K562, read-out: K-562 TGI
In short: (§2)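 CellTiter-Glo ATP luminescence after compound exposure at 37° C., 5% CO2; 3-fold serial dilutions from 10 μM, 0.1% DMSO vehicle. Readings background- and day 0-corrected, vehicle = 100%, medium = −100%. IC50 and total growth inhibition (TGI) from four-parameter fits.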

His-Brd3(20-477) = His-Brd3(20-477) (Homo sapiens (Human), UniProt Q15059); assay: TR-FRET in-vitro binding assay for BRD3; settings: biochemical
In short: as §1

THP-1 cells = assay: Cell growth inhibition assay (CellTiter-Glo), THP-1; assay type: cell-based; settings: Homo sapiens, read-out: THP-1 TGI
In short: as §2

Chain of His-Brd3(20-477) (Q15059 20-477): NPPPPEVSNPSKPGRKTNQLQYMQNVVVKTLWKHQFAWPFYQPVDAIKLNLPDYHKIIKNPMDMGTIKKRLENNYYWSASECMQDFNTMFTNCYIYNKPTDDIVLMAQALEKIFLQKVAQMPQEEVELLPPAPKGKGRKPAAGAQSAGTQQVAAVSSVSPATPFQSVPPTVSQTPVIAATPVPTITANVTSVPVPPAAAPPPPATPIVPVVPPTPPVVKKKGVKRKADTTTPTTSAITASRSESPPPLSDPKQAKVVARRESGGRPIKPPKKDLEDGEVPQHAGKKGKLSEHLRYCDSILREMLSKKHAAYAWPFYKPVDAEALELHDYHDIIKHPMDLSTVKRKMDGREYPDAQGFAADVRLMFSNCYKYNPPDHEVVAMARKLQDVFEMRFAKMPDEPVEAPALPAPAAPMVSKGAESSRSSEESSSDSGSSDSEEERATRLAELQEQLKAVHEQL
Chain of His-Brd2(60-472) (P25440 60-472): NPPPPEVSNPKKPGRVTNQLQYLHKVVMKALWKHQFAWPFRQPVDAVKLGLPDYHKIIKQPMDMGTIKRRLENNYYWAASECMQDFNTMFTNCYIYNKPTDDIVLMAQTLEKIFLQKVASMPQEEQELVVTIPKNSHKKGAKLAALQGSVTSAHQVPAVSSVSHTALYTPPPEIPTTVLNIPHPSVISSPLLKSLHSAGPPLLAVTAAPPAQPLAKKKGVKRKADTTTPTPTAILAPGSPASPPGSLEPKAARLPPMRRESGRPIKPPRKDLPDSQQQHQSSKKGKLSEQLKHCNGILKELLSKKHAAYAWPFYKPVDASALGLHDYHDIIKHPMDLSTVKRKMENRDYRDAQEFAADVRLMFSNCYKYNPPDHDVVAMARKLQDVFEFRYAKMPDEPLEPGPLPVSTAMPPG

IC50 (His-Brd2(60-472)) [nM] | IC50 (His-Brd3(20-477)) [nM] | SMILES | IC (total growth inhibition) (K-562 cells) [µM] | IC (total growth inhibition) (THP-1 cells) [µM]
220 | 160 | CCc1c2c(nn1C(=O)N(C)C)C(=O)N(c1cc(C)c(=O)n(C)c1)C2c1ccc(Cl)cc1 (stereo not drawn) [Example 148, 4-(4-chlorophenyl)-5-(1,5-dimethyl-6-oxo-1,6-dihydropyridin-3-yl)-3-ethyl-N,N-dimethyl-6-oxo-5,6-dihydropyrrolo[3,4-c]pyrazole-2(4H)-carboxamide] | > 10 | 0.372
36 | 39 | Cc1nn(C(=O)N(C)C)c2c1[C@@H](c1ccc(Cl)cc1)N(c1cc(C)c3nnc(C)n3c1)C2=O [Example 149, (R)-4-(4-chlorophenyl)-5-(3,8-dimethyl-[1,2,4]triazolo[4,3-a]pyridin-6-yl)-N,N,3-trimethyl-6-oxo-5,6-dihydropyrrolo[3,4-c]pyrazole-1(4H)-carboxamide] | > 10 | 0.138
140 | 120 | Cc1cc(N2C(=O)c3nn(C(=O)N(C)C)c(C)c3[C@H]2c2ccc(Cl)cc2)cn2c(C)nnc12 [Example 150, (R)-4-(4-chlorophenyl)-5-(3,8-dimethyl-[1,2,4]triazolo[4,3-a]pyridin-6-yl)-N,N,3-trimethyl-6-oxo-5,6-dihydropyrrolo[3,4-c]pyrazole-2(4H)-carboxamide] | > 10 | 0.211
150 | 160 | Cc1nn(C2CNC2)c2c1C(c1ccc(Cl)cc1)N(c1cc(C)c3nnc(C)n3c1)C2=O (stereo not drawn) [Example 151, 1-(azetidin-3-yl)-4-(4-chlorophenyl)-5-(3,8-dimethyl-[1,2,4]triazolo[4,3-a]pyridin-6-yl)-3-methyl-4,5-dihydropyrrolo[3,4-c]pyrazol-6(1H)-one] | > 10 | 1.33
100 | 110 | Cc1cc(N2C(=O)c3nn(C4CNC4)c(C)c3C2c2ccc(Cl)cc2)cn2c(C)nnc12 (stereo not drawn) [Example 152, 2-(azetidin-3-yl)-4-(4-chlorophenyl)-5-(3,8-dimethyl-[1,2,4]triazolo[4,3-a]pyridin-6-yl)-3-methyl-4,5-dihydropyrrolo[3,4-c]pyrazol-6(2H)-one] | > 10 | 4
160 | 130 | CC(=O)N1CC(n2nc(C)c3c2C(=O)N(c2cc(C)c(=O)n(C)c2)C3c2ccc(Cl)cc2)C1 (stereo not drawn) [Example 153, 1-(1-acetylazetidin-3-yl)-4-(4-chlorophenyl)-5-(1,5-dimethyl-6-oxo-1,6-dihydropyridin-3-yl)-3-methyl-4,5-dihydropyrrolo[3,4-c]pyrazol-6(1H)-one] | > 10 | 0.515
120 | 120 | CC(=O)N1CC(n2nc(C)c3c2C(=O)N(c2cc(C)c4nnc(C)n4c2)C3c2ccc(Cl)cc2)C1 (stereo not drawn) [Example 154, 1-(1-acetylazetidin-3-yl)-4-(4-chlorophenyl)-5-(3,8-dimethyl-[1,2,4]triazolo[4,3-a]pyridin-6-yl)-3-methyl-4,5-dihydropyrrolo[3,4-c]pyrazol-6(1H)-one] | > 10 | 0.538
80 | 76 | CCOC(=O)N1CC(n2nc(C)c3c2C(=O)N(c2cc(C)c(=O)n(C)c2)C3c2ccc(Cl)cc2)C1 (stereo not drawn) [Example 155, Ethyl 3-(4-(4-chlorophenyl)-5-(1,5-dimethyl-6-oxo-1,6-dihydropyridin-3-yl)-3-methyl-6-oxo-5,6-dihydropyrrolo[3,4-c]pyrazol-1(4H)-yl)azetidine-1-carboxylate] | > 10 | 0.305
59 | 77 | CCOC(=O)N1CC(n2nc(C)c3c2C(=O)N(c2cc(C)c4nnc(C)n4c2)C3c2ccc(Cl)cc2)C1 (stereo not drawn) [Example 156, Ethyl 3-(4-(4-chlorophenyl)-5-(3,8-dimethyl-[1,2,4]triazolo[4,3-a]pyridin-6-yl)-3-methyl-6-oxo-5,6-dihydropyrrolo[3,4-c]pyrazol-1(4H)-yl)azetidine-1-carboxylate] | > 10 | 0.143
77 | 200 | Cc1nn(C2CN(C)C2)c2c1C(c1ccc(Cl)cc1)N(c1cc(C)c3nnc(C)n3c1)C2=O (stereo not drawn) [Example 157, 4-(4-chlorophenyl)-5-(3,8-dimethyl-[1,2,4]triazolo[4,3-a]pyridin-6-yl)-3-methyl-1-(1-methylazetidin-3-yl)-4,5-dihydropyrrolo[3,4-c]pyrazol-6(1H)-one] | > 10 | 0.312
98 | 93 | Cc1cc(N2C(=O)c3nn(C4CN(C)C4)c(C)c3C2c2ccc(Cl)cc2)cn2c(C)nnc12 (stereo not drawn) [Example 158, 4-(4-chlorophenyl)-5-(3,8-dimethyl-[1,2,4]triazolo[4,3-a]pyridin-6-yl)-3-methyl-2-(1-methylazetidin-3-yl)-4,5-dihydropyrrolo[3,4-c]pyrazol-6(2H)-one] | > 10 | 0.298
42 | 45 | Cc1nn(C[C@H](O)C(F)(F)F)c2c1[C@@H](c1ccc(Cl)cc1)N(c1cc(C)c3nnc(C)n3c1)C2=O [Example 167, (R)-4-(4-chlorophenyl)-5-(3,8-dimethyl-[1,2,4]triazolo[4,3-a]pyridin-6-yl)-3-methyl-1-((S)-3,3,3-trifluoro-2-hydroxypropyl)-4,5-dihydropyrrolo[3,4-c]pyrazol-6(1H)-one] | > 10 | 0.117
